Earlier results, collected in patent US7771771B2, “Phytosterol compositions” (Raisio Nutrition Ltd., priority 1998, dated 2010).

Tests used:
[1] = in words
[2] = test system: serum cholesterol; aortic atheroma; settings: compared with sitosterol
[3] = test system: serum cholesterol; settings: rats; compared with sitosterol
[4] = test system: LDL cholesterol; settings: children with severe familial hypercholesterolemia; compared with sitosterol
[5] = test system: cholesterol content of mixed micelles; settings: compared with sitosterol

CC[C@H](CC[C@@H](C)[C@H]1CC[C@H]2[C@@H]3CC[C@H]4C[C@@H](O)CC[C@]4(C)[C@H]3CC[C@]12C)C(C)C [sitostanol]
absorption [1]: virtually unabsorbed | formation of aortic atheroma due to cholesterol feeding [2]: depressed the formation of aortic atheroma due to cholesterol feeding more than did sitosterol | hypocholesterolemic activity [3]: higher hypocholes-terolemic activity than sitosterol | reducing elevated levels of LDL cholesterol [4]: significantly more effective than sitosterol | lowering of the cholesterol content of mixed micelles [5]: more efficiently than sitosterol
